Experimental data reported in patent US20080009546A1 (Chevron U.S.A. Inc., priority 2005, published 2008).
Read-outs that look alike come from different tables or passages of the source.

Columns and labels:
NMDA receptor [1] = test: Whole-cell voltage-clamp recordings of NMDA evoked currents in hypocretin neurons (hypothalamic slices); assay type: cell-based, mouse
NMDA receptor [2] = test: [3H]MK-801 binding assay, NMDA receptors in guinea pig brain membranes
Method: Hartley guinea pigs were sacrificed, and their brains were quickly removed and weighed. The brains then were homogenized in 50 mM Tris HCl buffer, pH 7.7, using a Polytron homogenizer. The homogenate was centrifuged at 40,000×g for 15 min, rehomogenized, and centrifuged again. The final pellet was resuspended in Tris-HCl, pH 7.7, at a final concentration of 6.67 mg original wet weight of tissue/ml. […] The samples were then filtered through glass fiber filters on a Tomtec cell harvester. The filters were washed 3 times with 3 ml of cold buffer. Filters were dried overnight and counted next day on a Wallac Betaplate Reader.
The binding experiments were conducted as follows. […] For each compound, graphs were prepared containing individual competition curves obtained for that compound. IC50 values and Hill coefficients were calculated using the program Prism. Ki values were calculated using the Chang Prusoff transformation: Ki=IC50/(1+L/Kd)
where L is radioligand concentration and Kd is the binding affinity of the radioligand, as determined previously by saturation analysis. […] In each experiment, one standard compound was simultaneously run on each 96 well plate.

[3] = test system: primary neurons from rat cerebral cortex; test: NMDA-induced LDH release assay in primary cortical neurons (neuroprotection); assay type: cell-based; design: Total LDH (Avg): unit not given here
Summary of the method: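 Fetal rat (E16–E18) cortical neurons on mouse astroglial feeder layers, fed growth medium/neurobasal+B27 (1:1), used after 11–14 days. Treatments given in Locke's buffer pH 7.4 for 15 min, then cells washed; 24 h later percent LDH released = 100×secreted/(total+secreted), tetrazolium readout.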

C57/BL6 male mice = test: Pentylenetetrazol (PTZ)-induced seizure/death model; assay type: in vivo, mouse; conditions: for # of deaths within 30 min: 6 mice; for # of deaths within 30 min / PTZ-induced death: PTZ 100 mg/kg; for PTZ-induced death: 30 min observation
Method: Although the protection against death is the key endpoint, other effects of the compounds on PTZ-induced seizures were also assessed using multiple parameters. For the mice that did die within the 30 minute observation window, the time of death was also compared. […] The seizure occurrence rate, onset time and number of level 3 (L3) seizure (repetitive seizures but the animal can still stand) and level 4 (L4) seizure (repetitive seizures and the animal loses righting) are also analyzed. The MDT compound (30 mg/kg) treated groups show a certain degree of improvement compared to control. No data from MK801 or memantine were included because the seizures occurring under these treatments are totally different from the control or MDT injected groups due to side effects (“high jumping”).

[4] = NMDA 300 uM + Memantine 50 uM, Plate #4, poly-lysine-coated rat neurons, GM/NB + B-27 fed, 24 hour incubation
[5] = NMDA 300 uM + Memantine 50 uM, Plate #5, astrocyte-coated rat neurons, GM fed, 24 hour incubation
[6] = NMDA 300 uM + Memantine 50 uM, astrocyte-coated rat neurons, GM/NB + B-27 fed, 24 hour incubation
[7] = NMDA 500 μM + Memantine 10 μM, astrocyte-coated rat neurons, GM/NB + B-27 fed, 21 hour incubation
[8] = NMDA 500 uM + Memantine 10 uM, poly-lysine-coated rat neurons, GM/NB + B-27 fed, 40 hour incubation
[9] = NMDA 500 μM + Memantine 100 μM, astrocyte-coated rat neurons, GM/NB + B-27 fed, 21 hour incubation
[10] = NMDA 500 uM + Memantine 100 uM, poly-lysine-coated rat neurons, GM/NB + B-27 fed, 40 hour incubation

CC12CC3CC(C)(C1)CC(N)(C3)C2 [memantine, 1-amino-3,5-dimethyladamantane, reference compound]
reversibility of inhibition of NMDA evoked currents upon washout (NMDA receptor [1]): reversible
inhibition of the peak amplitude of NMDA evoked currents (NMDA receptor [1]; 10 µM): 41.3±10%
inhibition of the peak amplitude of NMDA evoked currents (NMDA receptor [1]; 30 µM): 52.7±7.4%
Ki (NMDA receptor [2]; [3H]MK-801 (1 nM), guinea pig brain membrane preparation, read-out: Ki (binding affinity)): 730 nM
Relative affinity (NMDA receptor [2]; compared to that of Memantine): 1 ^
Ki (NMDA receptor [2]; standard compounds at the NMDA site (Table 27), read-out: Ki): 733 ± 130 nM
% (Control Wash = 100) [3, 4]: 166%
Secreted LDH (Avg) [3, 4]: 0.75
Secreted/(total + secreted) (Avg) [3, 4]: 18.20
Total LDH (Avg) [3, 4]: 3.36
% (Control Wash = 100) [3, 5]: 106%
Secreted LDH (Avg) [3, 5]: 0.20
Secreted/(total + secreted) (Avg) [3, 5]: 6.20
Total LDH (Avg) [3, 5]: 3.06
% (Control Wash = 100) [3, 6]: 272%
Secreted LDH (Avg) [3, 6]: 0.83
Secreted/(total + secreted) (Avg) [3, 6]: 19.63
Total LDH (Avg) [3, 6]: 3.41
% (Control Wash = 100) [3, 7]: 129%
Secreted LDH (Avg) [3, 7]: 0.47
Secreted/(total + secreted) (Avg) [3, 7]: 10.73
Total LDH (Avg) [3, 7]: 3.89
% (Control Wash = 100) [3, 8]: 111%
Secreted LDH (Avg) [3, 8]: 0.41
Secreted/(total + secreted) (Avg) [3, 8]: 12.77
Total LDH (Avg) [3, 8]: 2.80
% (Control Wash = 100) [3, 9]: 114%
Secreted LDH (Avg) [3, 9]: 0.42
Secreted/(total + secreted) (Avg) [3, 9]: 9.47
Total LDH (Avg) [3, 9]: 4.02
% (Control Wash = 100) [3, 10]: 156%
Secreted LDH (Avg) [3, 10]: 0.52
Secreted/(total + secreted) (Avg) [3, 10]: 17.86
Total LDH (Avg) [3, 10]: 2.39
Mortality rate (C57/BL6 male mice; 10 mg/kg i.p.): 0.17
# of deaths within 30 min (C57/BL6 male mice; 10 mg/kg i.p.): 1
Mortality rate (C57/BL6 male mice; 30 mg/kg i.p.): 0
# of deaths within 30 min (C57/BL6 male mice; 30 mg/kg i.p.): 0
PTZ-induced death (C57/BL6 male mice; 10 and 30 mg/kg i.p.): dose-dependent reduction in death
PTZ-induced death (C57/BL6 male mice; high dose 30 mg/kg i.p.): full protection
